Assay: MALDI-TOF screening of Ni^2+ dependent hydrolysis in a combinatorial peptide library
Assay type: physicochemical
Conditions: CH3CO-Gly-Ala-Thr-X-His-Z-Lys-Phe-Leu-NH2 library, Ni^2+ 2 mM, pH 8.2, 10 mM Tris, score=24/tm
In short: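 The screen used 1 mM peptide mixtures in 10 mM Tris, pH 8.2, with 2 mM Ni2+ at two temperatures, 37 °C and 45 °C. Product appearance and substrate decline were monitored visually by MALDI-TOF over 8 h. Scores for X and Z were then summed by row and column to rank substitutions.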

Row | Substance | hydrolysis score from MALDI-TOF screening (37° C.) | hydrolysis score from MALDI-TOF screening (45° C.)
1 | Ac-GATKHAKFL-NH2 [TKHA] | 0 (a score of 0 if no trace of the product of hydrolysis was seen after 8 hours of incubation) | 3 (a score of 3 for detection at 8 hours)
2 | Ac-GATKHDKFL-NH2 [TKHD] | 0 (a score of 0 if no trace of the product of hydrolysis was seen after 8 hours of incubation) | 0 (a score of 0 if no trace of the product of hydrolysis was seen after 8 hours of incubation)
3 | Ac-GATKHEKFL-NH2 [TKHE] | 0 (a score of 0 if no trace of the product of hydrolysis was seen after 8 hours of incubation) | 0 (a score of 0 if no trace of the product of hydrolysis was seen after 8 hours of incubation)
4 | Ac-GATKHFKFL-NH2 [TKHF] | 3 (a score of 3 for detection at 8 hours) | 6 (a score of 6 for detection at 4 hours)
5 | Ac-GATKHGKFL-NH2 [TKHG] | 0 (a score of 0 if no trace of the product of hydrolysis was seen after 8 hours of incubation) | 0 (a score of 0 if no trace of the product of hydrolysis was seen after 8 hours of incubation)
6 | Ac-GATKHHKFL-NH2 [TKHH] | 0 (a score of 0 if no trace of the product of hydrolysis was seen after 8 hours of incubation) | 4 (a score of 4 for detection at 6 hours)
7 | Ac-GATKHIKFL-NH2 [TKHI] | 4 (a score of 4 for detection at 6 hours) | 12 (a score of 12, if it was seen to be partially hydrolysed at 2 hours)
8 | Ac-GATKHKKFL-NH2 [TKHK] | 3 (a score of 3 for detection at 8 hours) | 12 (a score of 12, if it was seen to be partially hydrolysed at 2 hours)
9 | Ac-GATKHLKFL-NH2 [TKHL] | 4 (a score of 4 for detection at 6 hours) | 12 (a score of 12, if it was seen to be partially hydrolysed at 2 hours)
10 | Ac-GATKHMKFL-NH2 [TKHM] | 3 (a score of 3 for detection at 8 hours) | 4 (a score of 4 for detection at 6 hours)
11 | Ac-GATKHNKFL-NH2 [TKHN] | 0 (a score of 0 if no trace of the product of hydrolysis was seen after 8 hours of incubation) | 0 (a score of 0 if no trace of the product of hydrolysis was seen after 8 hours of incubation)
12 | Ac-GATKHPKFL-NH2 [TKHP] | 0 (a score of 0 if no trace of the product of hydrolysis was seen after 8 hours of incubation) | 0 (a score of 0 if no trace of the product of hydrolysis was seen after 8 hours of incubation)
13 | Ac-GATKHQKFL-NH2 [TKHQ] | 0 (a score of 0 if no trace of the product of hydrolysis was seen after 8 hours of incubation) | 0 (a score of 0 if no trace of the product of hydrolysis was seen after 8 hours of incubation)
14 | Ac-GATKHRKFL-NH2 [TKHR] | 4 (a score of 4 for detection at 6 hours) | 12 (a score of 12, if it was seen to be partially hydrolysed at 2 hours)
15 | Ac-GATKHSKFL-NH2 [TKHS] | 0 (a score of 0 if no trace of the product of hydrolysis was seen after 8 hours of incubation) | 0 (a score of 0 if no trace of the product of hydrolysis was seen after 8 hours of incubation)
16 | Ac-GATKHTKFL-NH2 [TKHT] | 0 (a score of 0 if no trace of the product of hydrolysis was seen after 8 hours of incubation) | 0 (a score of 0 if no trace of the product of hydrolysis was seen after 8 hours of incubation)
17 | Ac-GATKHVKFL-NH2 [TKHV] | 3 (a score of 3 for detection at 8 hours) | 6 (a score of 6 for detection at 4 hours)
